The source of these data is US20240350647A1, “STING SENSITIZING AGENTS” (STipe Therapeutics ApS, priority 2023, published 2024).

“Also recorded” adds a separate entry of the source. Where a SMILES comes first, the peptide text is derived from it. Bridges are numbered along the chain shown (N, C = ends). [ ]: non-standard residue; d: D form. The star is where a group is joined. C16 diacid = O=C(O)CCCCCCCCCCCCCCC(=O)*; AEEA = NCCOCCOCC(=O)O

Series [1] in a line: In vitro metabolic stability in fresh blood. The class given is in vitro ADME. The conditions noted are these: 37° C.; mouse, rat and human blood. How it is done: Fresh blood from mouse (CD-1) and rat (Wistar) was collected from lab animals. Human blood was collected from healthy donors at local hospital or acquired from commercial vendor (BioIVT). Blood from non-human primates (Cynomolgus macaque) was acquired from commercial vendor (BioTVT).
For mouse, rat and human blood, 5.0 μg/mL of tested agent (except Agent 1 in human blood) was diluted from stock solution in DMSO to a final DMSO concentration of 0.5% and incubated in 1000 μL of blood at 37° C., in duplicate. At 0, 5, 15, 30, and 60 minutes, 180 μL was sampled and centrifuged at 2000 g for 1 min, 80 μL supernatant was taken and diluted 1:1 with water followed by precipitation with acetonitrile containing 5% TFA (internal standard 100 nM leucine enkephalin+Glu1 fibrinopeptide B). The obtained supernatant 60 μL was further diluted with 30 μL 20% DMSO in ultra-pure water and submitted for immediate analysis by LC-MS/MS. The controls were 1 μM propantheline bromide (mouse, human) or 1 μM enalapril (rat).
Incubation of Agent 1 in blood from human and monkey was performed in a similar manner. A 25 μM solution of Agent 1 was prepared with 5% DMSO and 22.5% methanol in water. […]
The peak areas were determined against a calibration curve and the T0 sample was set to 100%. The disappearance rate (k) was calculated and the half-life for each incubation was determined (t½=ln 2/k).

Another series can be described thus: FIG. 10B. The note with it: rat, in vivo, iv, 10 mg/kg. Here is the method:
Table printed on a drawing sheet, FIG. 10B
(§1) The patent's description of the figure: FIGS. 10A-10C. Pharmacokinetic profile and parameter for peptides after intravenous administration. FIG. 10A) Mouse PK data (10 mg/kg, bolus IV, n=3 per timepoint). FIG. 10B) Rat PK data (10 mg/kg, bolus IV, n=3 per timepoint). FIG. 10C) Non-human primate (NHP) PK data (4 mg/kg, 30 min IV infusion, n=3). Error bars represent the standard deviation (SD).
First reader's note: Rat PK parameters; the plot legend on the same sheet gives 10 mg/kg (IV) for both agents, and the top-left cell 'PK parameters / rat' spans the first two rows.

A further series is described as follows: FIG. 10A. The note with it: mouse, in vivo, iv, 10 mg/kg. How it is done: Table printed on a drawing sheet, FIG. 10A
as §1
First reader's note: Mouse PK parameters; the legend of the plot on the same sheet gives 10 mg/kg (IV) for both agents.

For `CC[C@H](C)[C@H](NC(=O)[C@H](CC(N)=O)NC(=O)[C@H](CCCCN)NC(=O)[C@H](C)NC(=O)[C@H](CCCCN)NC(=O)[C@H](CCCCN)NC(=O)COCCOCCNC(=O)COCCOCCNC(=O)CCCCCCCCCCCCCCC(=O)O)C(=O)N[C@H](C(=O)N[C@@H](CC(C)C)C(=O)N[C@@H](CC(C)C)C(=O)N[C@@H](CCCCN)C(=O)NCC(=O)N[C@@H](CC(C)C)C(=O)N[C@@H](CCC(=O)O)C(=O)N[C@H](C(=O)N[C@H](C(=O)N[C@@H](CC(N)=O)C(=O)N[C@@H](CC(=O)O)C(=O)N[C@@H](Cc1c[nH]c2ccccc12)C(=O)N[C@@H](Cc1c[nH]cn1)C(=O)N[C@@H](Cc1ccccc1)C(=O)N[C@H]1CSSC[C@@H](C(N)=O)NC(=O)[C@@H](CCCNC(=N)N)NC(=O)[C@H](CCCNC(=N)N)NC(=O)[C@@H](CCCCN)NC(=O)[C@H](CCCCN)NC(=O)[C@@H](CCCNC(=N)N)NC(=O)CNC(=O)[C@@H](CCCNC(=N)N)NC(=O)[C@H](CCCNC(=N)N)NC(=O)[C@@H](CCCNC(=N)N)NC1=O)[C@@H](C)CC)C(C)C)C(C)C` [Agent 1] ({C16 diacid-AEEA-AEEA}-KKAKNIVLLKGLEVINDWHFC[dR]R[dR]G[dR]K[dK]R[dR]C-NH2; disulfide 21-31), the “metabolic stability in fresh blood (half-life) compared to Agent 2 and Agent 3” value in series [1] is “better stability; also recorded: considerably reduces the metabolism”. The figures for the C0 in “FIG. 10B” and in “FIG. 10A” were 72.7 µg/mL and 30500 ng/mL, respectively.
